The source of these data is patent US10782295B2, “Cysteine-reactive ligand discovery in proteomes” (THE SCRIPPS RESEARCH INSTITUTE, priority 2013, dated 2020).

One assay concerns JNK pathway activation. Description: Western blotting of phospho-JNK in C22A-ZAK-transfected HEK-293T cells. It counts as cell-based, human. The method, then:
We next set out to assess the functional effects of HNE modification of ZAK in human cells. HEK-293T cells were stably transfected with cDNAs for WT-ZAK, C22A-ZAK, or K45M-ZAK and the activation state of their MAPK signaling pathways was monitored by western blotting with anti-phosphoprotein antibodies. […] We next treated cells with H2O2 (1 mM, 30 min) to induce oxidative stress, a process that is known to activate the JNK pathway^41,42. H2O2 treatment stimulated JNK activity in both WT- and C22A-ZAK-transfected cells (but not K45M-ZAK-transfected cells), with WT-ZAK cells showing the greater level of activation (FIG. 5b,c). […] We interpret these findings to indicate the existence of both ZAK-dependent and ZAK-independent pathways for HNE modulation of JNK activation (FIG. 5d). By modifying C22 on ZAK, HNE blocks the contribution that this kinase makes to the activation of the JNK pathway. […]
Mouse and rabbit monoclonal antibodies against phospho-ERK 1/2 (Thr202/Tyr204), phosphor-SAPK/JNK (Thr183/[…]), phosphor-p38 MAPK (Thr180/[…]) and total ERK 1/2, SAPK/JNK and p38 MAPK were purchased from Cell Signaling Technology. […] Protein band intensities were quantified by ImageJ8 and ratios of phosphor-MAPK over total MAPK were computed. […]
On the technique in general: Immunoblotting shows a protein as a band on a membrane.

Another assay has as its target T1, C22A-ZAK (Homo sapiens, UniProt Q9NYL2, C22A).
T1 construct: Full-length cDNA encoding human ZAK-13 (BC001401); expressed in transfected cells
In words: ZAK in vitro kinase activity assay (MBP substrate). As to conditions: 10 or 100 μM HNE; immunoprecipitated enzyme. In kind it is biochemical. The text has this:
(§1) The gel signals for IA-labeling of WT-ZAK were blocked by pretreatment with HNE over a concentration range that closely matched the HNE-sensitivity profile observed for C22 in competitive isoTOP-ABPP experiments (FIG. 4b, compare to FIG. 3a). […] Considering further that C22 is predicted to reside adjacent to the ATP-binding loop of ZAK, we postulated that the HNE-induced loss of kinase activity might be due to blockade of ATP-binding.
(§2) The kinase activity assay protocol was adapted from Yu et al^5. Kinase assay buffers, Myeilin Basic Protein (MBP) substrate, and ATP stock solution were purchased from SignalChem. Radio-labeled [^33P]-ATP was purchased from PerkinElmer. 10 mg of soluble lysate of HEK-293T cells transfected with each of wild-type, C22A and K45M of ZAK were immunoprecipitated and then eluted with 2×300 μL FLAG-peptide buffer. […] The spotted P81 strips were air dried and then washed with 10 mL of 1% phosphoric acid for 3×10 min ZAK activity was measured by counting the radioactivity on the P81 paper in the presence of scintillation fluid in a scintillation counter after subtracting the value obtained from the corresponding no substrate control, and was normalized to that of ZAK-WT without HNE treatment. […]

For the next assay, the target named is T2, WT-ZAK (Homo sapiens, UniProt Q9NYL2).
T2 construct: Full-length cDNA encoding human ZAK-13 (BC001401); expressed in transfected cells
In words: ZAK in vitro kinase activity assay (MBP substrate). In kind it is biochemical. As to conditions: 10 or 100 μM HNE; immunoprecipitated enzyme.
From the text: as §1, §2

For `CCCCCC(O)/C=C/C=O` (stereo not shown) [4-HNE, 4-Hydroxynonenal], the “JNK activation by HNE alone, C22A-ZAK-transfected cells” value in the assay on JNK pathway activation (50 or 100 μM, 60 min) is “dramatic concentration-dependent activation of JNK”. Besides, in the assay with JNK pathway activation (pre-treatment 100 μM, 30 min, then H2O2 1 mM, 30 min), the “H2O2-dependent JNK activation, C22A-ZAK cells” value is given as “hyper-activating JNK activity”. At C22A-ZAK, the “ZAK catalytic activity, C22A-ZAK residual activity” value is listed as “insensitive”. For the same compound, the “ZAK catalytic activity, WT-ZAK” value on WT-ZAK is “inhibited”.
